Measured values published in ChEMBL document CHEMBL1240429, “N'-[(5-chloro-3-methyl-1-phenyl-1H-pyrazol-4-yl)methylene] 2/4-substituted hydrazides: synthesis and anticonvulsant activity” (Eur J Med Chem, 2010).
Activity calls are given as the source filed them. No cut-off for these calls is given here.

Columns and labels:
[1] = Neurotoxicity in ip dosed albino mouse assessed as inability to maintain equilibrium on rotarod after 30 mins by rotarod test; assay type: toxicity, organism-based; conditions: in vivo
Mus musculus [2] = experiment: Anticonvulsant activity in ip dosed albino mouse assessed as protection against MES-induced seizures after 4 hrs; assay type: functional
Mus musculus [3] = experiment: Anticonvulsant activity in ip dosed albino mouse assessed as protection against MES-induced seizures after 30 mins; assay type: functional; conditions: 0.5 h
Mus musculus [4] = experiment: Anticonvulsant activity in ip dosed albino mouse assessed as protection against scPTZ-induced seizures after 4 hrs; assay type: functional
Mus musculus [5] = experiment: Anticonvulsant activity in ip dosed albino mouse assessed as protection against scPTZ-induced seizures after 30 mins; assay type: functional; conditions: 0.5 h

SMILES	TD50 at 0.5 h [1]	ED50 (Mus musculus [2])	ED50 (Mus musculus [3])	ED50 (Mus musculus [4])	ED50 (Mus musculus [5])
Cc1ccc(C(=O)N/N=C/c2c(C)nn(-c3ccccc3)c2Cl)cc1	100 mg/kg				
Cc1nn(-c2ccccc2)c(Cl)c1/C=N/NC(=O)c1ccccc1	100 mg/kg				
Cc1nn(-c2ccccc2)c(Cl)c1/C=N/NC(=O)c1ccc([N+](=O)[O-])cc1		300 mg/kg	100 mg/kg	inactive	300 mg/kg
Cc1nn(-c2ccccc2)c(Cl)c1/C=N/NC(=O)c1ccc(Cl)cc1Cl		inactive	300 mg/kg	inactive	300 mg/kg
O=C1NC(=O)C(c2ccccc2)(c2ccccc2)N1 [PHENYTOIN]		30 mg/kg	30 mg/kg		
Cc1nn(-c2ccccc2)c(Cl)c1/C=N/NC(=O)Cc1cccc2ccccc12		100 mg/kg	100 mg/kg	inactive	300 mg/kg
Cc1nn(-c2ccccc2)c(Cl)c1/C=N/NC(=O)COc1ccccc1	300 mg/kg				
Cc1nn(-c2ccccc2)c(Cl)c1/C=N/NC(=O)c1ccc(F)cc1		100 mg/kg	100 mg/kg	100 mg/kg	100 mg/kg
CCCC(CCC)C(=O)[O-].[Na+] [VALPROATE SODIUM]				inactive	300 mg/kg
Cc1nn(-c2ccccc2)c(Cl)c1/C=N/NC(=O)Cc1ccc(Cl)cc1	300 mg/kg	300 mg/kg	100 mg/kg	300 mg/kg	100 mg/kg
Cc1nn(-c2ccccc2)c(Cl)c1/C=N/NC(=O)c1ccc(Cl)cc1	300 mg/kg	300 mg/kg	100 mg/kg	100 mg/kg	100 mg/kg
